{"source": "patent US20250064759A1", "about": "“CONTAINER COMPRISING A LISDEX[…] SOLUTION” (LABOMED PHARMACEUTICAL COMPANY S.A., priority 2021, published 2025)", "origin": "cited, not measured here", "details": "in vivo"}
{"smiles": "C[C@@H](Cc1ccccc1)NC(=O)[C@@H](N)CCCCN", "note": "[Lisdexamfetamine, L-lysine-d-amfetamine]", "values": [{"measurement": "period over which dexamfetamine is delivered", "value": "about 8 hours"}]}
